Where two headings read alike, the source gives them in different places.
Assays:
Assay type in all cases: cell-based
RSV strain A2 = assay: RSV HEp-2 EC50 (infectious cytopathic cell protection assay); settings: HEp-2 cells, RSV A2, 4 days, read-out: RSV HEp-2 EC50
Procedure: Antiviral activity against RSV is determined using an infectious cytopathic cell protection assay in HEp-2 cells. In this assay, compounds inhibiting viral infection and/or replication produce a cytoprotective effect against the virus-induced cell killing that can be quantified using a cell viability reagent. The techniques used here are novel adaptations of methods described in published literature (Chapman et al., Antimicrob Agents Chemother. 2007, 51(9):3346-53.)
HEp-2 cells are obtained from ATCC (Manassas, VI) and maintained in MEM media supplemented with 10% fetal bovine serum and penicillin/streptomycin. Cells are passaged twice a week and kept at subconfluent stage. Commercial stock of RSV strain A2 (Advanced Biotechnologies, Columbia, MD) is titered before compound testing to determine the appropriate dilution of the virus stock that generates desirable cytopathic effect in HEp-2 cells.
For antiviral tests, HEp-2 cells are grown in large cell culture flasks to near confluency but not fully so. The compounds to be tested are prediluted in DMSO in 384-well compound dilution plates, either in an 8 or 40 sample per plate standardized dose response format. 3-fold serial dilution increments of each test compound are prepared in the plates and test samples are transferred via acoustic transfer apparatus (Echo, Labcyte) at 100 nL per well into cell culture assay 384-well plates. Each compound dilution is transferred in single or quadruplicate samples into dry assay plates, which are stored until assay is ready to go. The positive and negative controls are laid out in opposite on ends of the plate in vertical blocks (1 column).
Subsequently, an infectious mixture is prepared using an appropriate dilution of virus stock previously determined by titration with cells at a density of 50,000/ml and 20 µL/well is added to test plates w/compounds via automation (uFlow, Biotek). Each plate includes negative and positive controls (16 replicates each) to create 0% and 100% virus inhibition standards, respectively. Following the infection with RSV, testing plates are incubated for 4 days in a 37° C. cell culture incubator. After the incubation, a cell viability reagent, Cell TiterGlo (Promega, Madison, WI) is added to the assay plates, which are incubated briefly, and a luminescent readout is measured (Envision, Perkin Elmer) in all the assay plates. The RSV-induced cytopathic effect, percentage inhibition, is determined from the levels of remaining cell viability. […] Various potent anti-RSV tool compounds are used as positive controls for antiviral activity.

RSV A2 = assay: RSV NHBE EC50 (RSV A2 antiviral assay in normal human bronchial epithelial cells); settings: NHBE cells, RSV A2, 4 days, read-out: RSV NHBE EC50
Procedure: Normal human bronchial epithelial (NHBE) cells were purchased from Lonza (Walkersville, MD, Cat #CC-2540) and cultured in Bronchial Epithelial Growth Media (BEGM) (Lonza, Walkersville, MD, Cat #CC-3170). The cells were passaged 1-2 times per week to maintain <80% confluency. The NHBE cells were discarded after 6 passages in culture.
To conduct the RSV A2 antiviral assay, NHBE cells were plated in 96-well plates at a density of 7,500 cells per well in BEGM and allowed to attach overnight at 37° C. Following attachment, 100 μL of cell culture media was removed and 3-fold serially diluted compound was added using a Hewlett-Packard D300 Digital Dispenser. The final concentration of DMSO was normalized to 0.05%. Following compound addition, the NHBE cells were infected by the addition of 100 μL of RSV A2 at a titer of 1×10^4.5 tissue culture infectious doses/mL in BEGM and then incubated at 37° C. for 4 days. […] The mixtures were incubated for 10 minutes at 25° C., and the luminescence signal was quantified on an Envision luminescence plate reader.

HRV16 = HRV16 HELA EC50 (cytopathic effect in H1-HeLa cells)
Procedure: H1-HeLa cells, cultured in complete DMEM medium containing 10% heat-inactivated FBS and 1% Penicillin/Streptomycin, were seeded in 96 well plates at 3000 cells/well one day prior to compound dosing and infection. The antiviral activity of each compound was measured in triplicate. Compounds were added directly to the cell cultures in serial 3-fold dilutions using the HP300 digital dispenser (Hewlett Packard, Palo Alto, CA) immediately prior to infection. The plates were transferred to BSL-2 containment and the appropriate dilution of virus stock, previously determined by titration and prepared in cell culture media, was added to test plates containing cells and serially diluted compounds. Each plate included 6 wells of infected untreated cells and 6 wells of uninfected cells that served as 0% and 100% virus inhibition control, respectively. Following the infection, test plates were incubated for 96 h in a tissue culture incubator set to 33° C./5% CO2. Following incubation, the H1-HeLa cells were removed from incubation and allowed to equilibrate to 25° C. Cell viability was determined by removing 100 μL of culture medium and adding 100 μL of Cell-Titer Glo viability reagent. The mixtures were incubated on a shaker for 10 minutes at 25° C., and the luminescence signal was quantified on an Envision luminescence plate reader.

DENV2 replicon = assay: DENV-2 Huh-7 Rep EC50 (replicon luminescence); settings: Dengue virus, DENV2, Huh-7, 48 h, Huh-7 replicon cells, 48 hours; read-out: DENV-2 Huh-7 Rep EC50
Procedure: In 384 well plates (Greiner, Cat #781091), compounds were acoustically transferred at 200 nl per well in a 8 compound (4 replicates) or 40 compound dose response format (3 replicates). For all plates tested, Balapiravir, GS-5734 and NITD008 were included as positive inhibition controls alongside 0% inhibition, DMSO-only negative control wells. Following compound addition, Huh-7 cells containing the DENV2 replicon construct were harvested following standard cell culture procedures and were adjusted to a concentration of 1.25E5 cells/mL in cell culture media composed of cDMEM without genticin. 40 μL of the cell stock was then added to each well for a final cell density of 5,000 cells/well. Cell and compound mixtures were incubated at 37° C./5% CO2 for 48 hours. Prior to harvesting cells, EnduRen Live Cell Substrate (Promega, Cat #E6481) was prepared by suspending 3.4 mg into 100 uL of DMSO to generate a 60 mM stock solution. The stock solution was then diluted 1:200 in pre-warmed cDMEM and 10 uL of this diluted solution was added to each well of the 384 well plates. Plates were then centrifuged at 500 rpm briefly and were placed on a plate shaker for 2 min. Following mixing, plates were incubated at […] for 1.5 hours prior to measuring luminescence on an Envision luminometer.

[1] = human respiratory syncytial virus, HEp-2, 96 h
[2] = human respiratory syncytial virus, NHBE, 96 h
[3] = 96 h, H1-HeLa cells, 33° C., read-out: HRV16 HELA EC50
[4] = H1-HeLa cells, 96 h, 33° C.; read-out: HRV16 HELA EC50
[5] = human respiratory syncytial virus, 96 h

`C[C@H](NP(=O)(OC[C@@]1(C#N)O[C@@H](c2ccc3c(N)ncnn23)[C@H](O)[C@@H]1O)Oc1ccccc1)C(=O)OC[C@H]1CC[C@H](C(F)(F)F)CC1` (mixture of isomers) [Example 26, ((1r,4S)-4-(trifluoromethyl)cyclohexyl)methyl ((((2R,3S,4R,5S)-5-(4-aminopyrrolo[2,1-f][1,2,4]triazin-7-yl)-2-cyano-3,4-dihydroxytetrahydrofuran-2-yl)methoxy)(phenoxy)phosphoryl)alaninate] gave an EC50 (RSV strain A2; [1]) of 0.334 µM, an EC50 (RSV A2; [2]) of 25 nM and an EC50 (HRV16; [3]) of 0.669 µM. It also gave an EC50 (DENV2 replicon) of 44.3 µM.
For `CCOC(=O)[C@H](CCCCNC(C)=O)NP(=O)(OC[C@@]1(C#N)O[C@@H](c2ccc3c(N)ncnn23)[C@H](O)[C@@H]1O)Oc1ccccc1` (mixture of isomers) [Example 85, (2S)-ethyl 6-acetamido-2-(((((2R,3S,4R,5S)-5-(4-aminopyrrolo[2,1-f][1,2,4]triazin-7-yl)-2-cyano-3,4-dihydroxytetrahydrofuran-2-yl)methoxy)(phenoxy)phosphoryl)amino)hexanoate], the EC50 (RSV strain A2; [1]) was greater than 46.7 µM, the EC50 (RSV A2; [2]) was greater than 5000 nM and the EC50 (HRV16; [3]) was greater than 50 µM. It also gave an EC50 (DENV2 replicon) greater than 50 µM.
For `CCC(CC)COC(=O)[C@H](CCCCN)NP(=O)(OC[C@@]1(C#N)O[C@@H](c2ccc3c(N)ncnn23)[C@H](O)[C@@H]1O)Oc1ccccc1` (mixture of isomers) [Example 91, (2S)-2-ethylbutyl 6-amino-2-(((((2R,3S,4R,5S)-5-(4-aminopyrrolo[2,1-f][1,2,4]triazin-7-yl)-2-cyano-3,4-dihydroxytetrahydrofuran-2-yl)methoxy)(phenoxy)phosphoryl)amino)hexanoate], the EC50 (RSV strain A2; [1]) was 12.1 µM, the EC50 (RSV A2; [2]) was greater than 5000 nM and the EC50 (HRV16; [3]) was greater than 50 µM. For the same compound, the EC50 (DENV2 replicon) was greater than 50 µM.
`CC(C)OC(=O)C1(NP(=O)(OC[C@@]2(C#N)O[C@@H](c3ccc4c(N)ncnn34)[C@H](O)[C@@H]2O)Oc2ccccc2)CCC1` (mixture of isomers) [Example 95, isopropyl 1-(((((2R,3S,4R,5S)-5-(4-aminopyrrolo[2,1-f][1,2,4]triazin-7-yl)-2-cyano-3,4-dihydroxytetrahydrofuran-2-yl)methoxy)(phenoxy)phosphoryl)amino)cyclobutanecarboxylate] was tested, and the EC50 (RSV strain A2; [1]) was 15.2 µM, the EC50 (RSV A2; [2]) was greater than 5000 nM and the EC50 (HRV16; [3]) was greater than 42.2 µM. For the same compound, the EC50 (DENV2 replicon) was greater than 50 µM.
In the case of `CCOC(=O)C1(NP(=O)(OC[C@@]2(C#N)O[C@@H](c3ccc4c(N)ncnn34)[C@H](O)[C@@H]2O)Oc2ccccc2)CC1` (mixture of isomers) [Example 106, ethyl 1-(((((2R,3S,4R,5S)-5-(4-aminopyrrolo[2,1-f][1,2,4]triazin-7-yl)-2-cyano-3,4-dihydroxytetrahydrofuran-2-yl)methoxy)(phenoxy)phosphoryl)amino)cyclopropanecarboxylate], the EC50 (RSV strain A2; [1]) is reported as greater than 42.5 µM, the EC50 (RSV A2; [2]) is reported as greater than 5000 nM and the EC50 (HRV16; [3]) is reported as greater than 100 µM. For the same compound, the EC50 (DENV2 replicon) was greater than 100 µM.
With `N#C[C@]1(COP(=O)(NCC(=O)OC2CCCC2)Oc2ccccc2)O[C@@H](c2ccc3c(N)ncnn23)[C@H](O)[C@@H]1O` (mixture of isomers) [Example 112, cyclopentyl 2-(((((2R,3S,4R,5S)-5-(4-aminopyrrolo[2,1-f][1,2,4]triazin-7-yl)-2-cyano-3,4-dihydroxytetrahydrofuran-2-yl)methoxy)(phenoxy)phosphoryl)amino)acetate] the EC50 (RSV strain A2; [1]) was 1.41 µM, the EC50 (RSV A2; [2]) was 464 nM and the EC50 (HRV16; [3]) was 3.69 µM. The EC50 (DENV2 replicon) was greater than 50 µM.
For `COC(=O)[C@H](C)NP(=O)(OC[C@@]1(C#N)O[C@@H](c2ccc3c(N)ncnn23)[C@H](O)[C@@H]1O)Oc1ccc(C[C@H](N)C(=O)OC)cc1` (single isomer, unassigned) [Example 62], the EC50 (RSV strain A2) was 4.53 µM, the EC50 (RSV A2) was greater than 5000 nM and the EC50 (HRV16; [4]) was 8.57 µM.
`C[C@@H](NP(=O)(OC[C@@]1(C#N)O[C@@H](c2ccc3c(N)ncnn23)[C@H](O)[C@@H]1O)Oc1ccccc1)C(=O)O[C@H]1CC[C@H](C(F)(F)F)CC1` (single isomer, unassigned) [Example 196] was tested, and the EC50 (RSV strain A2) was 4.13 µM, the EC50 (RSV A2) was 1320 nM and the EC50 (HRV16; [4]) was 7.54 µM.
Compound `CSCCOP(=O)(N[C@@H](C)C(=O)OC(C)C)OC[C@@]1(C#N)O[C@@H](c2ccc3c(N)ncnn23)[C@H](O)[C@@H]1O` (stereo partly drawn) [Example 40, isopropyl ((((2R,3S,4R,5S)-5-(4-aminopyrrolo[2,1-f][1,2,4]triazin-7-yl)-2-cyano-3,4-dihydroxytetrahydrofuran-2-yl)methoxy)(2-(methylthio)ethoxy)phosphoryl)-L-alaninate] has an EC50 (RSV strain A2; [5]) of 21.5 µM, an EC50 (RSV A2; [5]) of no less than 5000 nM and an EC50 (HRV16; [4]) greater than 50 µM.
For `C[C@H](NP(=O)(OC[C@@]1(C#N)O[C@@H](c2ccc3c(N)ncnn23)[C@H](O)[C@@H]1O)Oc1ccccc1)C(=O)OC1COC1` (stereo partly drawn) [Example 44, oxetan-3-yl ((((2R,3S,4R,5S)-5-(4-aminopyrrolo[2,1-f][1,2,4]triazin-7-yl)-2-cyano-3,4-dihydroxytetrahydrofuran-2-yl)methoxy)(phenoxy)phosphoryl)-L-alaninate], the EC50 (RSV strain A2; [1]) was 0.998 µM, the EC50 (RSV A2; [2]) was 1800 nM and the EC50 (HRV16; [3]) was 4.26 µM.
With `CCCCCCCCCCCCCCCC(=O)OCC(COP(=O)(O)OC[C@@]1(C#N)O[C@@H](c2ccc3c(N)ncnn23)[C@H](O)[C@@H]1O)OC(=O)CCCCCCCCCCCCCCC` (stereo partly drawn) [Example 152, 3-(((((2R,3S,4R,5S)-5-(4-aminopyrrolo[2,1-f][1,2,4]triazin-7-yl)-2-cyano-3,4-dihydroxytetrahydrofuran-2-yl)methoxy)(hydroxy)phosphoryl)oxy)propane-1,2-diyl dipalmitate] the EC50 (RSV strain A2; [5]) was greater than 5 µM, the EC50 (RSV A2; [5]) was 1780 nM and the EC50 (HRV16; [4]) was greater than 5 µM.
